{"source": "patent US11608335B2", "about": "“Somatostatin modulators and uses thereof” (CRINETICS PHARMACEUTICALS, INC., priority 2018, dated 2023)", "key": {"[1]": {"molecular_target": "T1, human somatostatin receptor subtype 2 (Homo sapiens, UniProt P30874)", "T1 construct": "expressed in transfected cells", "T1 sequence (P30874 whole entry)": "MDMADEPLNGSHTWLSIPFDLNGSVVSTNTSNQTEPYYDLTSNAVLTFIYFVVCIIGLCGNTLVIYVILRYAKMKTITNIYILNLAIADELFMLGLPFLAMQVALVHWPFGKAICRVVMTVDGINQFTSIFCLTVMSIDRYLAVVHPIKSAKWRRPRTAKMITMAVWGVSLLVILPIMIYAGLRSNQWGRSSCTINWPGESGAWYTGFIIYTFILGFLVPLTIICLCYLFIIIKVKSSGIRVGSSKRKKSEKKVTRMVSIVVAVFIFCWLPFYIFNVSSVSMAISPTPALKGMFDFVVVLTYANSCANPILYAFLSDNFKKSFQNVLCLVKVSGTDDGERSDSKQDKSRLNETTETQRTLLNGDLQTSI", "test": "cAMP assay for SST2R (inhibition of cAMP via human SST2 receptor)", "format": "cell-based", "details": "Table B, read-out: SST2 potency", "description": "cAMP Assay Protocol for SST2R:"}, "[2]": {"molecular_target": "human somatostatin receptor subtype 5 (Homo sapiens, UniProt P35346)", "sequence (P35346 whole entry)": "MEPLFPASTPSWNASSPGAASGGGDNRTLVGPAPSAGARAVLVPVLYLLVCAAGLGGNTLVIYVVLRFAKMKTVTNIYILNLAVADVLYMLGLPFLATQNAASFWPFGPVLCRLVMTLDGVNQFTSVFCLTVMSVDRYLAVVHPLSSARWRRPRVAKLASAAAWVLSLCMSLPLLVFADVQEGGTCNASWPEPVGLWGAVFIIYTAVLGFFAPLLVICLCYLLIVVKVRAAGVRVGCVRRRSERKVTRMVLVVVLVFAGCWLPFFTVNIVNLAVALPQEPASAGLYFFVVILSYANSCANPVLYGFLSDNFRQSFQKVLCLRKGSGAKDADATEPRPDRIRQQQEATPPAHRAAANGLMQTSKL", "test": "cAMP assay for SST5R (inhibition of cAMP via human SST5 receptor)", "details": "for Fold selectivity for SST5 vs SST2: SST5 over SST2, class symbols"}, "[3]": {"details": "read-out: SST5 potency, inhibition of cAMP via human SST5 receptor, Table B"}}, "note": "Where two headings read alike, the source gives them in different places."}
{"smiles": "Cc1ccnc2nc(-c3cncc(-c4cc(F)c(F)c(C#N)c4)c3N3CCC(C)(N)C3)[nH]c12", "note": "(stereo not shown) [Compound 2-140, 5-[4-(3-amino-3-methylpyrrolidin-1-yl)-5-{7-methyl-1H-imidazo[4,5-b]pyridin-2-yl}pyridin-3-yl]-2,3-difluorobenzonitrile]", "values": [{"measurement": "EC50", "setting": "[1]", "value": "0.01 to 0.1", "unit": "µM"}, {"measurement": "EC50", "setting": "[2]", "value": "< 0.01", "unit": "µM"}, {"measurement": "Fold selectivity for SST5 vs SST2", "setting": "[2]", "value": "++ (++=100 to 499)"}, {"measurement": "EC50", "setting": "[2]; [3]", "value": "< 0.01", "unit": "µM"}]}
{"smiles": "Cc1cccc2nc(-c3cncc(-c4ccc(F)c(OC(F)(F)F)c4)c3N3CC[C@H](N)C3)[nH]c12", "note": "[Compound 2-141, (3S)-1-{3-[4-fluoro-3-(trifluoromethoxy)phenyl]-5-(4-methyl-1H-1,3-benzodiazol-2-yl)pyridin-4-yl}pyrrolidin-3-amine]", "values": [{"measurement": "EC50", "setting": "[1]", "value": "0.1 to 1", "unit": "µM"}, {"measurement": "EC50", "setting": "[2]", "value": "< 0.01", "unit": "µM"}, {"measurement": "Fold selectivity for SST5 vs SST2", "setting": "[2]", "value": "++ (++=100 to 499)"}, {"measurement": "EC50", "setting": "[2]; [3]", "value": "< 0.01", "unit": "µM"}]}
{"smiles": "CCn1c(-c2cncc(-c3ccc(F)c(C#N)c3)c2N2CC[C@H](N)C2)nc2c(F)cccc21", "note": "[Compound 2-142, 5-{4-[(3S)-3-aminopyrrolidin-1-yl]-5-(1-ethyl-4-fluoro-1H-1,3-benzodiazol-2-yl)pyridin-3-yl}-2-fluorobenzonitrile]", "values": [{"measurement": "EC50", "setting": "[1]", "value": "> 1", "unit": "µM"}, {"measurement": "EC50", "setting": "[2]", "value": "< 0.01", "unit": "µM"}, {"measurement": "Fold selectivity for SST5 vs SST2", "setting": "[2]", "value": "+++ (+++=≥500)"}, {"measurement": "EC50", "setting": "[2]; [3]", "value": "< 0.01", "unit": "µM"}]}
{"smiles": "CCn1c(-c2cncc(-c3cccc(C#N)c3)c2N2CC[C@H](N)C2)nc2c(F)cccc21", "note": "[Compound 2-143, 3-{4-[(3S)-3-aminopyrrolidin-1-yl]-5-(1-ethyl-4-fluoro-1H-1,3-benzodiazol-2-yl)pyridin-3-yl}benzonitrile]", "values": [{"measurement": "EC50", "setting": "[1]", "value": "0.1 to 1", "unit": "µM"}, {"measurement": "EC50", "setting": "[2]", "value": "< 0.01", "unit": "µM"}, {"measurement": "Fold selectivity for SST5 vs SST2", "setting": "[2]", "value": "+++ (+++=≥500)"}, {"measurement": "EC50", "setting": "[2]; [3]", "value": "< 0.01", "unit": "µM"}]}
{"smiles": "CCn1c(-c2cncc(-c3cc(F)cc(C#N)c3)c2N2CC[C@H](N)C2)nc2c(F)cccc21", "note": "[Compound 2-144, 3-{4-[(3S)-3-aminopyrrolidin-1-yl]-5-(1-ethyl-4-fluoro-1H-1,3-benzodiazol-2-yl)pyridin-3-yl}-5-fluorobenzonitrile]", "values": [{"measurement": "EC50", "setting": "[1]", "value": "> 1", "unit": "µM"}, {"measurement": "EC50", "setting": "[2]", "value": "< 0.01", "unit": "µM"}, {"measurement": "Fold selectivity for SST5 vs SST2", "setting": "[2]", "value": "+++ (+++=≥500)"}, {"measurement": "EC50", "setting": "[2]; [3]", "value": "< 0.01", "unit": "µM"}]}
{"smiles": "Cc1cccc(-c2cncc(-c3nc4cccc(C)c4[nH]3)c2N2CC[C@H](N)C2)c1", "note": "[Compound 2-146, (3S)-1-[3-(4-methyl-1H-1,3-benzodiazol-2-yl)-5-(3-methylphenyl)pyridin-4-yl]pyrrolidin-3-amine]", "values": [{"measurement": "EC50", "setting": "[1]", "value": "0.1 to 1", "unit": "µM"}, {"measurement": "EC50", "setting": "[2]", "value": "< 0.01", "unit": "µM"}, {"measurement": "Fold selectivity for SST5 vs SST2", "setting": "[2]", "value": "++ (++=100 to 499)"}, {"measurement": "EC50", "setting": "[2]; [3]", "value": "< 0.01", "unit": "µM"}]}
{"smiles": "CC1(N)CCN(c2c(-c3ccc(F)c(C#N)c3)cncc2-c2nc3cccc(C#N)c3[nH]2)C1", "note": "(stereo not shown) [Compound 2-147, 2-[4-(3-amino-3-methylpyrrolidin-1-yl)-5-(3-cyano-4-fluorophenyl)pyridin-3-yl]-1H-1,3-benzodiazole-4-carbonitrile]", "values": [{"measurement": "EC50", "setting": "[1]", "value": "0.1 to 1", "unit": "µM"}, {"measurement": "EC50", "setting": "[2]", "value": "< 0.01", "unit": "µM"}, {"measurement": "Fold selectivity for SST5 vs SST2", "setting": "[2]", "value": "+++ (+++=≥500)"}, {"measurement": "EC50", "setting": "[2]; [3]", "value": "< 0.01", "unit": "µM"}]}
{"smiles": "CC1(N)CCN(c2c(-c3ccnc(C#N)c3)cncc2-c2nc3cccc(C(F)(F)F)c3[nH]2)C1", "note": "(stereo not shown) [Compound 2-148, 4-(3-amino-3-methylpyrrolidin-1-yl)-5-[4-(trifluoromethyl)-1H-1,3-benzodiazol-2-yl]-[3,4′-bipyridine]-2′-carbonitrile]", "values": [{"measurement": "EC50", "setting": "[1]", "value": "0.1 to 1", "unit": "µM"}, {"measurement": "EC50", "setting": "[2]", "value": "< 0.01", "unit": "µM"}, {"measurement": "Fold selectivity for SST5 vs SST2", "setting": "[2]", "value": "+++ (+++=≥500)"}, {"measurement": "EC50", "setting": "[2]; [3]", "value": "< 0.01", "unit": "µM"}]}
{"smiles": "Cc1cncc2nc(-c3cncc(-c4ccc(F)c(C#N)c4)c3N3CCC(C)(N)C3)[nH]c12", "note": "(stereo not shown) [Compound 2-149, 5-[4-(3-amino-3-methylpyrrolidin-1-yl)-5-{7-methyl-3H-imidazo[4,5-c]pyridin-2-yl}pyridin-3-yl]-2-fluorobenzonitrile]", "values": [{"measurement": "EC50", "setting": "[1]", "value": "0.1 to 1", "unit": "µM"}, {"measurement": "EC50", "setting": "[2]", "value": "< 0.01", "unit": "µM"}, {"measurement": "Fold selectivity for SST5 vs SST2", "setting": "[2]", "value": "++ (++=100 to 499)"}, {"measurement": "EC50", "setting": "[2]; [3]", "value": "< 0.01", "unit": "µM"}]}
{"smiles": "Cc1ccnc2[nH]c(-c3cncc(-c4cccc(C#N)c4)c3N3CC[C@](C)(N)C3)nc12", "note": "[Compound 2-155, 3-{4-[(3S)-3-amino-3-methylpyrrolidin-1-yl]-5-{7-methyl-1H-imidazo[4,5-b]pyridin-2-yl}pyridin-3-yl}benzonitrile]", "values": [{"measurement": "EC50", "setting": "[1]", "value": "0.1 to 1", "unit": "µM"}, {"measurement": "EC50", "setting": "[2]", "value": "< 0.01", "unit": "µM"}, {"measurement": "Fold selectivity for SST5 vs SST2", "setting": "[2]", "value": "++ (++=100 to 499)"}, {"measurement": "EC50", "setting": "[2]; [3]", "value": "< 0.01", "unit": "µM"}]}
